Data taken from patent US20240415836A1, “COMPOSITION COMPRISING TWO ENZYME INHIBITORS TARGETING TWO DIFFERENT CONFORMATIONS OF AN ENZYME” (University College Dublin, priority 2018, published 2024).
Like-named read-outs stand apart in the source and are kept apart here.

Tests used:
[1] = tested on: DND41 (T-ALL leukaemia) cells; assay: Proliferation of DND41 cells, 4 days; type: cell-based; conditions: doses exceeding 10 μM of each drug, alone and in combination
Procedure: Inventors' model predictions were corroborated by cell line experiments where proliferation responses of T-ALL cells (DND41) to Type I inhibitor Ruxolitinib, Type II inhibitor CHZ868, and their combination were measured (FIG. 17). […] However, the inventors observed saturation of inhibition of cellular proliferation. […] This incomplete inhibition of proliferation is explained by activation of STAT family of transcription factors by alternative signalling pathways.

RAF = conditions: literature values; cited from earlier work
[2] = tested on: HER2-positive breast cancer cells; assay: HER2-positive breast cancer cells stimulated with Heregulin (HRG); type: cell-based
Procedure: Thus, in order to model conditions of resistance to ErbB inhibitors, all proliferation assays were performed in the presence of HRG.

[3] = tested on: ERK signaling, MEL-JUSO cells; assay: ERK signaling in growing MEL-JUSO cells, Western Blot, 1 hr; type: cell-based; conditions: trametinib at doses that do not fully inhibit ERK activation
Procedure: Cells were transferred on ice, scraped using lysis buffer (10 mM Tris pH 7.5, 150 mM NaCl, and 0.5% (v/v) NP-40) complemented with protease and phosphatase inhibitors, and the cellular debris removed from the lysate by centrifugation at 10,000×g at 4° C. for 10 min. […] Lysates were then resolved by SDS PAGE (12%) and transferred on a polyvinylidene difluoride membrane (Millipore). Protein visualization was performed in combination with horseradish peroxidase-conjugated secondary antibodies (Cell Signalling Technologies) and the enhanced chemiluminescence system (GE Healthcare) using the Advanced Molecular Vision Chemi Image Unit associated with ChemoStar Imager (INTAS Science Imaging Instruments GmbH) for the following antibodies: Polyclonal rabbit anti-human mitogen-activated protein (MAP) kinase [extra-cellular signal-regulated kinase (ERK) 1 and ERK2] antibody (Sigma), monoclonal mouse anti-human MAP kinase activated (diphosphorylated ERK1 and ERK2) antibody (Sigma).

[4] = tested on: MEK signaling, A375 (WT RAS, BRAF^V600E/V600E) cells; assay: cells; conditions: Homo sapiens, A-375, 1 h, read-out: IC50, MEK signaling response
Procedure: (§1) Cell lines were either purchased from ATCC (SKMEL2, A375) or DSMZ (MEL-JSUO). […] All cells were grown in RPMI (Gibco) supplemented with 2 mM L-glutamine and 10% (v/v) fetal bovine serum in a humidified atmosphere of 5% CO2 at 37° C. Cells were seeded in 12-well plates (Greiner CELLSTAR dishes) at the density of 10^5 cells per well. After reaching sufficient confluency, cells were treated with different concentrations of inhibitors and DMSO as control. To prepare the protein lysates, plates were transferred on ice, washed with ice-cold PBS and harvested by scraping in specific ELISA buffers as indicated below.
(§2) Briefly, following the addition of complete MSD lysis buffer and scraping the cells from the surface of the dish, the cellular debris was removed from the lysate by centrifugation at 10000×g at 4° C. for 10 min. Protein concentration was determined using the BCA test according to the manufacturer's instructions (Pierce™ BCA Protein Assay Kit).

[5] = tested on: ERK signaling, MEL-JUSO cells; assay: ERK signaling (ppERK) in growing MEL-JUSO cells, LUMINEX xMAP, 24 hr; type: cell-based; conditions: extending into the micromolar range
Procedure: Following the addition of complete Luminex lysis buffer and scraping the cells from the surface of the dish, the cellular debris was removed from the lysate by centrifugation at 10000×g at 4° C. for 10 min. The pellet was discarded and the protein concentration of lysates was adjusted to 0.3 μg/μL using the BCA assay kit. xMAP assays were performed on a Luminex-3D platform (Luminex, Austin, TX) using commercially available phosphoprotein antibody-coupled beads (ProtATonce, Athens, Greece). […] Additionally, for loading control the levels of glyceraldehyde 3-phosphate dehydrogenase (GAPDH) protein were analyzed in a separate setting.

[6] = tested on: ERK signaling, MEL-JUSO cells; assay: ERK signaling (ppERK) in growing MEL-JUSO cells, MESOSCALE system, 24 hr; type: cell-based; conditions: applied separately, high doses (12 μM), following paradoxical activation
Procedure: as §1, §2

MEL-JUSO cells = assay: Cell proliferation assay (MTS) in MEL-JUSO cells; type: cell-based; conditions: Homo sapiens, read-out: GI50 (a dose inhibiting cell proliferation by 50%)
Procedure: Cell proliferation was analyzed by CellTiter 96 Aqueous One Solution Cell Proliferation Assay (MTS; Promega) according to manufacturer's instructions. For this, 5,000 cells were plated per well of 96-well tissue culture plates (in 200 μL of medium).

all RAF isoforms = conditions: literature (King 2006; Wan 2004; Wilhelm 2004); cited from earlier work

CC(=O)Nc1cc(Oc2ccc3c(nc(Nc4ccc(F)cc4F)n3C)c2C)ccn1 [CHZ868]
plateau level of suppression of cellular proliferation [1]: ~60%

COC(=O)N[C@@H](C)CNc1nccc(-c2cn(C(C)C)nc2-c2cc(Cl)cc(NS(C)(=O)=O)c2F)n1 [LGX818]
1/koff (RAF): ≥ 2 h

CS(=O)(=O)CCNCc1ccc(-c2ccc3ncnc(Nc4ccc(OCc5cccc(F)c5)c(Cl)c4)c3c2)o1 [Lapatinib]
sensitivity of cells after stimulation with Heregulin (HRG) [2]: resistant to Lapatinib treatment

N#CC[C@H](C1CCCC1)n1cc(-c2ncnc3[nH]ccc23)cn1 [Ruxolitinib]
plateau level of suppression of cellular proliferation [1]: ~60%

CC(C)(C)c1nc(-c2cccc(NS(=O)(=O)c3c(F)cccc3F)c2F)c(-c2ccnc(N)n2)s1 [dabrafenib]
effect on ERK signaling of addition to trametinib [3]: increases rather than decreases ERK signaling

CNC(=O)c1cc(Oc2ccc(NC(=O)Nc3ccc(Cl)c(C(F)(F)F)c3)cc2)ccn1 [sorafenib]
IC50 [4]: 44 µM | ERK response to each inhibitor applied separately [5]: marked paradoxical ERK activation | ppERK response [6]: could only slightly inhibit ppERK | GI50 (MEL-JUSO cells; MEL-JUSO): 8 µM | inhibition of RAF isoforms in in vitro kinase assays (all RAF isoforms): low nM range

CCCS(=O)(=O)Nc1ccc(F)c(C(=O)c2c[nH]c3ncc(-c4ccc(Cl)cc4)cc23)c1F [vemurafenib]
GI50 (MEL-JUSO cells; MEL-JUSO cells, applied individually): 32 µM
